{"source": "patent US5147604A", "about": "“Dioxo-aromatic compounds as oxygen scavengers” (Betz Laboratories, Inc., priority 1988, dated 1992)", "key": {"[1]": {"assay": "Oxygen scavenging efficacy at elevated temperature and pressure in hot water flow system (Example 1, TABLE 1)", "conditions": "for % O2 Removed: 78°±3°C, 4±1 psig, contact 4±0.2 min, feedwater concentration, pH and initial O2 (ppm) vary by line of TABLE 1, values below 20% may be experimental artifacts; for oxygen scavenging (in words): test water, TABLE 1", "method": "In a first series of tests, the oxygen scavenging efficacies of various materials were evaluated under conditions of elevated temperature and pressure. The test apparatus used was essentially a stainless steel hot water flow system equipped with appropriate monitoring instrumentation. Demineralized feedwater, adjusted to the appropriate pH and initial dissolved oxygen level (controlled by nitrogen sparging), was pumped from a reservoir at ambient temperature into a once-through heater. Temperature was monitored continuously by means of thermocouples at several locations along the length of the flow tubing. A solution containing the oxygen scavenger test material was loaded into a pump driven syringe and fed continuously to the heated flow stream through a port containing a stainless steel ribbon mixing baffle. The feedwater containing dissolved oxygen and the test material then traversed the flow tubing via a by-pass comprising an additional length of coiled tubing. Contact (or reaction) time of the test material and dissolved oxygen was governed by the choice of coil length. The tendency of the temperature to drop during residence in the coiled tubing was offset by the use of thermostatted heating tapes which maintained the temperature in this tubing at 78°±3°C. Upon exiting the coiled tubing, the stream flowed through a sample cooler to render the temperature of the liquid compatible with the operating range of a membrane-type dissolved oxygen probe. The cooled liquid was analyzed for dissolved oxygen via a D.O. flow cell, and pH was potentiometrically monitored in the flow tube immediately downstream of the D.O. probe. Outputs of the temperature, pH and dissolved oxygen probes during operation were monitored via strip chart recorders. The final destination of the reaction mixture was a reservoir which could be drained for analysis of reaction products, if desired.\nTemperature in the system could be maintained at 78°±3° C. under 4±1 psig. Residence time of the feedwater in the flow tube from chemical feed point to D.O. flow cell outlet was 4±0.2 minutes. […] Entry into and residence in the sample cooler accounted for 0.5 minute of the total contact time. […]\nThe test solutions were prepared by initially mixing 10 grams of test material and 90 grams of demineralized water in glass bottles and allowing the mixture to remain in a shaker for several hours. If complete dissolution for a given material was observed after shaking, the pH of the solution was measured. When the pH of the solution was below 10.0, 7N sodium hydroxide was added dropwise until this value was reached. The quantity of added sodium hydroxide was recorded and later used in corrections for the active concentration of the solution. When the pH value of a stock solution was above pH 10.0 without requiring the addition of caustic, the solution was not further modified.\nResults of these tests are reported in TABLE 1 below in terms of percent oxygen removed from the test stream. The precision of the initial and final dissolved oxygen values reported is approximately ±10%. […] The experimental uncertainties decrease with increasing values of percent dissolved oxygen removal."}, "[2]": {"assay": "Oxygen scavenging in feedwater of a working boiler, field-type conditions (Example 2, TABLES 2 and 3)", "conditions": "TABLE 2, actives 1.0-2.2 ppm, pH 8.7-9.4, steam load 11 or 15 (1000 lbs./hr.), initial O2 3.8-8 ppb by line"}, "test rats": {"test_system": "test rats", "conditions": "NIOSH Registry of Toxic Effects of Chemical Substances (1976); cited from earlier work"}, "[3]": {"assay": "Low (room) temperature reactivity with oxygen (Example 4, TABLE 5)", "conditions": "mole ratio of treatment to O2 and initial O2 by line of TABLE 5; for % O2 Removed, 1 Minute: room temperature 22.5-26.5 °C, pH 8.6-10.0; for % O2 Removed, 5 Minutes: room temperature 24.0-26.5 °C, pH 9.1-10.0", "excerpt": "In a further series of tests, the low (room) temperature reactivities with oxygen of various dioxo compounds were compared to that of hydrazine. The test apparatus basically consisted of a 1 liter three-necked flask fitted with a dissolved oxygen probe and a pH electrode. The intent of this apparatus was to show reaction kinetics differences rather than precise measurements (within seconds) of reaction times.\nThe flask was filled with deionized water which had been stripped of some dissolved oxygen by bubbling nitrogen through a diffuser stone. The pH was adjusted to the desired level with sodium hydroxide. The flask was sealed with a rubber septum, the dissolved oxygen probe and an inlet stopper. A magnetic stirrer bar was left in the flask for mixing. The mixer was turned on, and dissolved oxygen and temperature readings were recorded until the dissolved oxygen reached a constant value. Next, the appropriate quantity of additive was injected through the septum using a hypodermic syringe. The initial mole ratio of treatment to dissolved oxygen was determined by weighing feed chemical and measuring the oxygen concentration. […] Dissolved oxygen and temperature readings were then taken at appropriate time intervals.\nThe results of these tests are provided below in TABLE 5 in terms of relative amounts of % oxygen removed at the time intervals indicated (1 and 5 minutes)."}, "[4]": {"conditions": "to nitrogen, hydrogen and ammonia; cited from earlier work"}, "[5]": {"assay": "Thermal decomposition studies of aqueous solutions in autoclaves (Example 5, TABLE 6)", "conditions": "hydrazine 60 ppm, 4 hours"}}, "data": [{"compound": "O=C1C=CC(=O)c2ccccc21", "note": "[1,4-naphthoquinone]", "values": [{"measurement": "% O2 Removed", "setting": "[1]", "result": 99, "unit": "%"}, {"measurement": "% O2 Removed", "setting": "[2]", "result": 88, "unit": "%"}]}, {"compound": "O=Cc1ccc(O)cc1O", "note": "[2,4-dihydroxybenzaldehyde]", "values": [{"measurement": "% O2 Removed", "setting": "[1]", "result": 14, "unit": "%"}, {"measurement": "oxygen scavenging (in words)", "setting": "[1]", "result": "ineffective"}]}, {"compound": "O=Cc1cc(O)ccc1O", "note": "[2,5-dihydroxybenzaldehyde]", "values": [{"measurement": "% O2 Removed", "setting": "[1]", "result": 98, "unit": "%"}]}, {"compound": "O=[N+]([O-])c1ccccc1O", "note": "[2-nitrophenol]", "values": [{"measurement": "% O2 Removed", "setting": "[1]", "result": 0, "unit": "%"}]}, {"compound": "O=Cc1ccc(O)c(O)c1", "note": "[3,4-dihydroxybenzaldehyde]", "values": [{"measurement": "% O2 Removed", "setting": "[1]", "result": "73 ± 2", "unit": "%"}]}, {"compound": "CC(C)(C)c1ccc(O)c(O)c1", "note": "[4-tert-butylcatechol]", "values": [{"measurement": "% O2 Removed", "setting": "[1]", "result": 97, "unit": "%"}, {"measurement": "% O2 Removed", "setting": "[2]", "result": 37, "unit": "%"}, {"measurement": "LD50 Oral Rat", "setting": "test rats", "result": 2820, "unit": "mg/kg"}]}, {"compound": "O=C1C=CC(=O)C=C1", "note": "[benzoquinone]", "values": [{"measurement": "% O2 Removed", "setting": "[1]", "result": 96, "unit": "%"}, {"measurement": "oxygen scavenging (in words)", "setting": "[1]", "result": "quite efficacious as an oxygen scavenger"}, {"measurement": "% O2 Removed", "setting": "[2]", "result": 57, "unit": "%"}, {"measurement": "% O2 Removed, 1 Minute", "setting": "[3]", "result": 76, "unit": "%"}, {"measurement": "% O2 Removed, 5 Minutes", "setting": "[3]", "result": 90, "unit": "%"}]}, {"compound": "Oc1ccccc1O", "note": "[catechol]", "values": [{"measurement": "% O2 Removed", "setting": "[1]", "result": 96, "unit": "%"}, {"measurement": "% O2 Removed", "setting": "[2]", "result": 75, "unit": "%"}, {"measurement": "% O2 Removed, 1 Minute", "setting": "[3]", "result": 7, "unit": "%"}, {"measurement": "% O2 Removed, 5 Minutes", "setting": "[3]", "result": 30, "unit": "%"}, {"measurement": "LD50 Oral Rat", "setting": "test rats", "result": 3890, "unit": "mg/kg"}]}, {"compound": "NN", "note": "[hydrazine]", "values": [{"measurement": "temperature above which it decomposes", "setting": "[4]", "result": "Above 400 ° F."}, {"measurement": "LD50 Oral Rat", "setting": "test rats", "result": 60, "unit": "mg/kg"}, {"measurement": "% Decomposition", "setting": "[5]; 0 psig, 70 °F.", "result": 0, "unit": "%"}, {"measurement": "% Decomposition", "setting": "[5]; 1100 psig, 550 °F.", "result": 52, "unit": "%"}, {"measurement": "% Decomposition", "setting": "[5]; 1620 psig, 600 °F.", "result": 79, "unit": "%"}, {"measurement": "% Decomposition", "setting": "[5]; 2000 psig, 636 °F.", "result": 93, "unit": "%"}]}, {"compound": "Oc1ccc(O)cc1", "note": "[hydroquinone]", "values": [{"measurement": "LD50 Oral Rat", "setting": "test rats", "result": 320, "unit": "mg/kg"}]}, {"compound": "Cc1ccccc1O", "note": "[o-cresol]", "values": [{"measurement": "% O2 Removed", "setting": "[1]", "result": 17, "unit": "%"}]}, {"compound": "Nc1ccccc1N", "note": "[o-phenylenediamine]", "values": [{"measurement": "oxygen scavenging (in words)", "setting": "[1]", "result": "ineffective"}]}, {"compound": "O=C(O)c1ccc(O)cc1", "note": "[p-hydroxybenzoic acid]", "values": [{"measurement": "% O2 Removed", "setting": "[1]", "result": 13, "unit": "%"}]}, {"compound": "COc1ccc(O)cc1", "note": "[p-methoxyphenol]", "values": [{"measurement": "% O2 Removed", "setting": "[1]", "result": 40, "unit": "%"}]}, {"compound": "Nc1ccc(N)cc1", "note": "[p-phenylenediamine]", "values": [{"measurement": "oxygen scavenging (in words)", "setting": "[1]", "result": "ineffective"}]}, {"compound": "Oc1ccc(-c2ccccc2)cc1", "note": "[p-phenylphenol]", "values": [{"measurement": "% O2 Removed", "setting": "[1]", "result": 40, "unit": "%"}]}, {"compound": "Oc1cccc(O)c1", "note": "[resorcinol]", "values": [{"measurement": "oxygen scavenging (in words)", "setting": "[1]", "result": "ineffective"}]}]}
